The target in test [1] is T1, recombinant human 5-HT4 receptor (Homo sapiens, UniProt Q13639).
T1 construct: expressed in transfected cells
Nature of the test: Determination of EC50 values for 5-HT4 receptor (CHO cells, pCRE-Luc reporter). Type of test: cell-based. To be noted: CHO. A digest of the protocol: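 CHO cells stably expressing human 5-HT4 receptor with a CRE-luciferase reporter, serum-starved overnight, then exposed to increasing compound concentrations in OptiMEM for 4 h at 37 °C. Cells lysed and luciferase luminescence plotted against concentration.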

The test system of another test is sAPPα. Nature of the test: Estimation of mice brain cortical sAPPα levels (ELISA). Type of test: in vivo. The following applies: s.c., 60 minutes post treatment. The method, then:
The control group of mice received sterile water for injection subcutaneously (s.c.). […] Mice were sacrificed 60 minutes after the drug injection by cervical dislocation, the brains were quickly isolated and the cortex was dissected at −20° C. The cortex was immediately kept on a dry ice and weighed before being stored at −80° C. until Enzyme-linked immunosorbent assay (ELISA) was performed. • 1. Brain tissues were thawed and Tris Buffer Saline containing protease inhibitors (TBS, 4 times by volume) added (0.8 mL/200 mg tissues). • 2. Brain tissue samples were homogenized using glass-Teflon homogenizer at 10 strokes. The resulting homogenates were centrifuged at 15,000 rpm at 4° C. for 60 minutes. • 3. The supernatant was discarded and to the precipitate, 4 times volume (0.8 mL/200 mg tissues) of TBS was added. Again homogenized followed by centrifugation at 15,000 rpm 4° C. for 30 minutes. • 4. From the above centrifuged mixture the supernatant was discarded and 10 times volume of 6M Guanidine-HCl in 50 mM Tris buffer pH: 7.6 (500 μL/50 mg tissues) was added. The resulting solution was sonicated for 5 seconds, 4 times. • 5. Resulting mixture was incubated at the RT for 30 minutes, followed by centrifugation at 15,000 rpm, 4° C. for 30 minutes. From this 5 μL of supernatant solution was taken and diluted with 155 μL of EIA buffer (dilution factor 32). Measurement of sAPPα by ELISA Kit: To investigate the role of an acute treatment of test compound on sAPPα levels, we measured the expression of this protein in homogenates from the cortex of treated and untreated mice by ELISA assay. The entire procedure was followed as described in the ELISA kit manual (Mouse/Rat sAPPα ELISA, Catalog Number: JP27415, […], Hamburg, Germany). Statistical analyses were performed using the Graph Pad Prism (Version 4). Data are Mean±SD of sAPPa levels expressed as percentage of control values (mice which received water for injection). Values were compared between the different groups by using unpaired t test. The significance level was set at *p<0.05; […]; ***<0.001.

The test system of another test is Male Wistar rats. Nature of the test: Object recognition task model. Format: in vivo. The following applies: dose mg/kg: Ex 1 0.1, Ex 2 0.03, Ex 4 0.03, Ex 13 1, Ex 23 0.01, Ex 37 10, Ex 43 0.3. As for the experimental part: The cognition enhancing properties of compounds of this invention were estimated by using this model.
Male Wistar rats (230-280 grams) were used as experimental animals. Four animals were housed in each cage. Animals were kept on 20% food deprivation before one day and given water ad libitum throughout the experiment and maintained on a 12 hours light/dark cycle. Also the rats were habituated to individual arenas for 1 hour in the absence of any objects.
One group of 12 rats received vehicle (1 mL/Kg) orally and another set of animals received compound of the formula (I) either orally or i.p., before one hour of the familiar (T1) and choice trial (T2).
The experiment was carried out in a 50×50×50 cm open field made up of acrylic. In the familiarization phase, (T1), the rats were placed individually in the open field for 3 minutes, in which two identical objects (plastic bottles, 12.5 cm height×5.5 cm diameter) covered in yellow masking tape alone (a1 and a2) were positioned in two adjacent corners, 10 cms from the walls. After 24 hours of the (T1) trial for long-term memory test, the same rats were placed in the same arena as they were placed in T1 trial. Choice phase (T2) rats were allowed to explore the open field for 3 minutes in presence of one familiar object (a3) and one novel object (b) (Amber color glass bottle, 12 cm high and 5 cm in diameter). Familiar objects presented similar textures, colors and sizes. During the T1 and T2 trial, explorations of each object (defined as sniffing, licking, chewing or having moving vibrissae whilst directing the nose towards the object at a distance of less than 1 cm) were recorded separately by stopwatch. Sitting on an object was not regarded as exploratory activity, however, it was rarely observed.
T1 is the total time spent exploring the familiar objects (a1+a2).
T2 is the total time spent exploring the familiar object and novel object (a3+b).
The object recognition test was performed as described by Behaviour Brain Research, (1988), 31, 47-59.

Test [2] concerns Scopolamine Induced amnesia. Nature of the test: Radial arm maze. To be noted: p.o., rats. Format: in vivo. From the text:
The cognition enhancing properties of compounds of formula (I) of this invention were estimated by using this model.
Radial arm maze consists of a central hub of 45 cm diameter. Each arm was of dimension 42.5×15×24 cm. The maze was elevated to a height of 1 m above the ground. The animals were placed on a restricted diet until they reached approximately 85% of their free feeding weight. During this diet restriction period animals were habituated to the novel feed (pellets). Once the rats reached approximately 85% of their free feeding weight rats were habituated to the maze on the 1st and 2nd day. […] Animals were randomized on day 2. On the subsequent days the treatment was given as per the allotment: Each animal was introduced into the maze individually for a period of 10 minutes. The arms were baited only once and the animal had to learn the rule that repeated arm entries would not be rewarded. The trial ended once the rat had visited 16 arms or 10 minutes were over or all the pellets were eaten. The arm entries were recorded using the software. Once the trial was over the rat was removed and the maze was cleaned using soap water.

T1 sequence (Q13639 whole entry): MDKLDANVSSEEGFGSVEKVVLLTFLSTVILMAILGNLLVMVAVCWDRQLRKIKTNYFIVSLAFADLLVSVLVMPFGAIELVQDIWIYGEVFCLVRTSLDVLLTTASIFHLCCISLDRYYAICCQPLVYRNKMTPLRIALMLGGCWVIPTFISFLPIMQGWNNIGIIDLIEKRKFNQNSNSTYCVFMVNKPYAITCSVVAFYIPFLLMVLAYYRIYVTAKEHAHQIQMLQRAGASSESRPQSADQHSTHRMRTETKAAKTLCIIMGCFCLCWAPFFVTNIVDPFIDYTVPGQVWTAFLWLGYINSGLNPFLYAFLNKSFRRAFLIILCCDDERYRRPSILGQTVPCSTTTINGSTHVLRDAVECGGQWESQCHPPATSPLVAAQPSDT

Turning to `Nc1c(Cl)cc(C(=O)NCC2CCN(CC3(O)CCOCC3)CC2)c2ncccc12.O=C(O)C(O)C(O)C(=O)O` [Example 23, 5-Amino-6-chloro-N-{[1-(4-hydroxytetrahydro-2H-pyran-4-ylmethyl)-4-piperidinyl]methyl}quinoline-8-carboxamide L(+)-tartarate], the maximal effect (Emax) (commonly the greatest response seen or fitted, relative to the assay's reference) in test [1] was 67%. In addition, in the test on sAPPα (0.3 mg/kg), the “increase in the mice brain cortical sAPPα levels” value is reported as 42%. Besides, in the test on sAPPα (1.0 mg/kg), the “increase in the mice brain cortical sAPPα levels” value was 33%. For the same compound, in the test with Male Wistar rats (choice trial T2, p.o.), the “Exploration time mean ± S.E.M, Familiar object” value is 8.80 ± 1.46 s and the “Exploration time mean ± S.E.M, Novel object” value was found to be 16.80 ± 2.45 s. The Inference entry with Male Wistar rats (p.o.) is “Active”. The “Reversal of Scopolamine Induced amnesia - Effective dose range” value in test [2] is 0.01-0.1 mg/kg, p.o.

Values taken from patent US9790211B2, “5-amino-quinoline-8-carboxamide derivatives as 5-HT4 receptor agonists” (SUVEN LIFE SCIENCES LIMITED, priority 2013, dated 2017).
